Test results from ChEMBL document CHEMBL1132364, “Structure-activity relationship of N-(phenylalkyl)cinnamides as novel NR2B subtype-selective NMDA receptor antagonists” (J Med Chem, 1999).

Experiments:
[1] = target: Glutamate NMDA receptor; Grin1/Grin2c (Rattus norvegicus, UniProt P35439+Q00961); test: Antagonistic activity against N-methyl-D-aspartate glutamate receptor 1/2C.; assay type: functional
[2] = target: Glutamate NMDA receptor; Grin1/Grin2b (Rattus norvegicus, UniProt P35439+Q00960); test: Antagonistic activity against N-methyl-D-aspartate glutamate receptor 1/2B.; assay type: functional
[3] = target: Glutamate NMDA receptor; Grin1/Grin2a (Rattus norvegicus, UniProt P35439+Q00959); test: Antagonistic activity against N-methyl-D-aspartate glutamate receptor 1/2A.; assay type: functional
[4] = target: T1, Alpha-1A adrenergic receptor (Homo sapiens, UniProt P35348); test: Inhibition of Alpha-1 adrenergic receptor
T1 sequence (P35348 whole entry): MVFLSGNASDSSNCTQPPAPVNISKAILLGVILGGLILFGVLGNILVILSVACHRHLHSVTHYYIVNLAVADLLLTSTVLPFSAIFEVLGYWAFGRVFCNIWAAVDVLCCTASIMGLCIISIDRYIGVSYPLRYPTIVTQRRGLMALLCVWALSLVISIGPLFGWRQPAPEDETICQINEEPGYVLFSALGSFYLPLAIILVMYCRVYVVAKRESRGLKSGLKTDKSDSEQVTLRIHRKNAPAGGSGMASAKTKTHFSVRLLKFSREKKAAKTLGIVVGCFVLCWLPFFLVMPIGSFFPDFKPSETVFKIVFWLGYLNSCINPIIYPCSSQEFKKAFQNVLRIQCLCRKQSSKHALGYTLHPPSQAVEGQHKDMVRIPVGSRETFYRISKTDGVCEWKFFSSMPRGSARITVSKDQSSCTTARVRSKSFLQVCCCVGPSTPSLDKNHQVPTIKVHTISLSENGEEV

[5] = target: Epidermal growth factor receptor (Homo sapiens, UniProt P00533); test: Inhibition of Epidermal growth factor receptor autophosphorylation

Chain of Glutamate NMDA receptor; Grin1/Grin2b (Q00960 whole entry, other chains not shown): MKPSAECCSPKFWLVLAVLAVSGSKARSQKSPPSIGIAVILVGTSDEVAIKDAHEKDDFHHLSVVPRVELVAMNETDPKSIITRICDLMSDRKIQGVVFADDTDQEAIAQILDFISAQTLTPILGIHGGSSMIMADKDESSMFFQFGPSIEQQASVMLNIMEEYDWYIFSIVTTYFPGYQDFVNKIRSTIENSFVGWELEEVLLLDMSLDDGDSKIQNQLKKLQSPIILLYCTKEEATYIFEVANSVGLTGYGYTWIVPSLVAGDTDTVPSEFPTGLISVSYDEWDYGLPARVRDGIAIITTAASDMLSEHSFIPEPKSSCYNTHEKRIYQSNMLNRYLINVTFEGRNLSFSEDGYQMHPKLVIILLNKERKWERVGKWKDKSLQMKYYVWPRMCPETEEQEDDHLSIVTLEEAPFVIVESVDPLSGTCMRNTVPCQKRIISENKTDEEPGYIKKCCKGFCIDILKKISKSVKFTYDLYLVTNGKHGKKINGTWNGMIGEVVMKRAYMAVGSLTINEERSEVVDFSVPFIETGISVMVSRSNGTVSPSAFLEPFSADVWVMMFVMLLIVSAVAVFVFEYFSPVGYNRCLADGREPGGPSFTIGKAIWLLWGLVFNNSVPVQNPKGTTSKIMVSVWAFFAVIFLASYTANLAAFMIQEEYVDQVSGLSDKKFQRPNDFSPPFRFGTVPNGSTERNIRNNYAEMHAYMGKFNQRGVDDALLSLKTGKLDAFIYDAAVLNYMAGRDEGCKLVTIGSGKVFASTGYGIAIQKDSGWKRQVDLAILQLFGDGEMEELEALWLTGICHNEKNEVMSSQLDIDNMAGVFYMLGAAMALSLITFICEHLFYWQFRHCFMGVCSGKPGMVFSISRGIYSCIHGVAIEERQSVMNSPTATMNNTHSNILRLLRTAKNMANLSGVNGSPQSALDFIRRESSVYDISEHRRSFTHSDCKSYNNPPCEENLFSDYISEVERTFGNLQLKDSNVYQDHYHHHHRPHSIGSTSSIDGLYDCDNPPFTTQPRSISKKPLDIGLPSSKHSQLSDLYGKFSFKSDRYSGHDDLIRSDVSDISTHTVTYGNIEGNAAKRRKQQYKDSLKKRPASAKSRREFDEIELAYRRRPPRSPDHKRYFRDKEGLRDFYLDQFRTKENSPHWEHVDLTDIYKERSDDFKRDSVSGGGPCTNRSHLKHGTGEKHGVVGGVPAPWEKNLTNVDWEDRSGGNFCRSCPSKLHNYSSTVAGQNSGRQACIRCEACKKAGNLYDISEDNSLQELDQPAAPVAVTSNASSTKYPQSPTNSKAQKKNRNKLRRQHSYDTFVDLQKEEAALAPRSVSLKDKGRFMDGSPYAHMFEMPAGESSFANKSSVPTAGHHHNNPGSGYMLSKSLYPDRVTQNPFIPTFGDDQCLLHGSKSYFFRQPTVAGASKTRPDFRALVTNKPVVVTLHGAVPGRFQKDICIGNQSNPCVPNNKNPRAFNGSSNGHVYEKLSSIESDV
Chain of Glutamate NMDA receptor; Grin1/Grin2a (Q00959 whole entry, other chains not shown): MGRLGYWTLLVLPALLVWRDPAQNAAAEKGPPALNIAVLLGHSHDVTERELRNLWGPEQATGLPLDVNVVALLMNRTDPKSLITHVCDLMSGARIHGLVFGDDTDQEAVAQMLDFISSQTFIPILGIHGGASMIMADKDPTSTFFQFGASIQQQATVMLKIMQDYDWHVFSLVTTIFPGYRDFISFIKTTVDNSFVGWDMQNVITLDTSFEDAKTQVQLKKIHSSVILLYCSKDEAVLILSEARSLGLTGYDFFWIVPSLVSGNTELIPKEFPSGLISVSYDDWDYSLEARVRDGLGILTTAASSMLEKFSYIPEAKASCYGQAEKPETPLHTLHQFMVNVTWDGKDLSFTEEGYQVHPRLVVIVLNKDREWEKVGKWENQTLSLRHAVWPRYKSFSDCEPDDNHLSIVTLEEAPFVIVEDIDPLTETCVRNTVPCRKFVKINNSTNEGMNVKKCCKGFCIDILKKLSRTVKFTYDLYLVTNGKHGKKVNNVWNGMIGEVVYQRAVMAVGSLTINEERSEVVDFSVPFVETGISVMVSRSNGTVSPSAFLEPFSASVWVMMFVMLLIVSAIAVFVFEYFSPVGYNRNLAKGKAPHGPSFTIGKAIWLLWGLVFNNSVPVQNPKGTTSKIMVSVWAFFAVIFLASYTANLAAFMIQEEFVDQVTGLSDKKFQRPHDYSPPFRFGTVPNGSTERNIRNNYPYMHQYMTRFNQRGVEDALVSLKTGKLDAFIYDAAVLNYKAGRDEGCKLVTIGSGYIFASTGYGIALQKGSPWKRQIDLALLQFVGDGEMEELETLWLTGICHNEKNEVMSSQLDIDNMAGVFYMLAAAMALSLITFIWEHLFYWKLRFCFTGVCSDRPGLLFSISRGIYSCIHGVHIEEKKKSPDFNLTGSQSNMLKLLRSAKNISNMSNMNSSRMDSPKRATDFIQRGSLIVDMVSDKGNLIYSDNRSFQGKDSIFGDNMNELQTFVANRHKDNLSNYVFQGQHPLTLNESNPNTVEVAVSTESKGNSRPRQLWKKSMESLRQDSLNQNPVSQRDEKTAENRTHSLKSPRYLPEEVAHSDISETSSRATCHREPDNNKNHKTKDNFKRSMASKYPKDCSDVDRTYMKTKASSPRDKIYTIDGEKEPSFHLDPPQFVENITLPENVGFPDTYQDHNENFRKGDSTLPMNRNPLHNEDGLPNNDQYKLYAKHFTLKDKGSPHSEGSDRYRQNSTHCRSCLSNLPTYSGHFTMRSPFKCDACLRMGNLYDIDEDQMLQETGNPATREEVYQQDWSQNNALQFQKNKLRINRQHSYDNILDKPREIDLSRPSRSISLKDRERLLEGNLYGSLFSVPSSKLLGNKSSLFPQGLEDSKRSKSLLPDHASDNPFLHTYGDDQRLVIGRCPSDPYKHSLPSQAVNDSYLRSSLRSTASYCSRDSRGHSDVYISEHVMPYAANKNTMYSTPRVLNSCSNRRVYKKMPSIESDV
Chain of Glutamate NMDA receptor; Grin1/Grin2c (Q00961 whole entry, other chains not shown): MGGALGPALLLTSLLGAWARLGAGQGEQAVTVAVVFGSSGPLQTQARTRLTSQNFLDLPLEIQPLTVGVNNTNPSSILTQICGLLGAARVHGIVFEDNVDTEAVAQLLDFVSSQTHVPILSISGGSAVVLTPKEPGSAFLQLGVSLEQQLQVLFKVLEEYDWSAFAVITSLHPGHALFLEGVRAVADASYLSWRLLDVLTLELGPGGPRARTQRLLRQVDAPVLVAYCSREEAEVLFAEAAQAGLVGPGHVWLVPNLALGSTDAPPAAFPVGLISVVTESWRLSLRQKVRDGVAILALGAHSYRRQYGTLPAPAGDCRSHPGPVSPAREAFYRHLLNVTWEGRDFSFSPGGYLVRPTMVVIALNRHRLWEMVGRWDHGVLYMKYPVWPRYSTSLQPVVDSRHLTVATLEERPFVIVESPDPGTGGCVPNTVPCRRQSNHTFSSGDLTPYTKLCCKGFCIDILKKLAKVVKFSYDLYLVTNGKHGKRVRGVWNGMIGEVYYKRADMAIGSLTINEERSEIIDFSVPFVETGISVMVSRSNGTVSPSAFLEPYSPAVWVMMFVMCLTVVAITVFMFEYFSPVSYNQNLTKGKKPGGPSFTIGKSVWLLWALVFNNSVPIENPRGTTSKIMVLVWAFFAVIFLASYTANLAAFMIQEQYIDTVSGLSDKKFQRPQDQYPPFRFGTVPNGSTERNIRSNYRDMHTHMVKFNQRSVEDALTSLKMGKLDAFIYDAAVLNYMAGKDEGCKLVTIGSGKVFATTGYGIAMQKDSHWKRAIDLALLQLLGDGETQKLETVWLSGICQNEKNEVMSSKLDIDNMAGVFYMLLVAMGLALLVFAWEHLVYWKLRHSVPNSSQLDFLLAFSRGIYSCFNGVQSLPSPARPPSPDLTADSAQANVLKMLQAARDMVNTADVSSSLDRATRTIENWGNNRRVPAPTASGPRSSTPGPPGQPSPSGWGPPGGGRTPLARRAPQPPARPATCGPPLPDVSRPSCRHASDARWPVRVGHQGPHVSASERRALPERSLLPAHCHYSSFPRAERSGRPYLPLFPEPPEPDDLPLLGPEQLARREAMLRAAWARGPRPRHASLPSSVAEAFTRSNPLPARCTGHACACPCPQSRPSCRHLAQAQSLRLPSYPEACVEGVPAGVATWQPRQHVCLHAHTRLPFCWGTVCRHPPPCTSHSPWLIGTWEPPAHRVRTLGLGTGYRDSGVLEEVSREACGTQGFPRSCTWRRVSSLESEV

Row | SMILES | IC50 [1] | IC50 [2] | IC50 [3] | IC50 [4] | IC50 [5]
1 | N#C/C(=C\c1ccccc1)C(=O)NCCCCc1ccccc1 | > 100 µM | 80 µM | > 100 µM | – | –
2 | O=C(/C=C/c1ccc(O)cc1)N1CCC(Cc2ccccc2)CC1 | > 100 µM | – | > 100 µM | > 100 µM | –
3 | O=C(/C=C/c1ccc(Cl)cc1Cl)NCCc1ccc(O)cc1 | > 100 µM | 19 µM | > 100 µM | > 100 µM | –
4 | CCN(CC)CCOc1ccc(CCNC(=O)/C=C/c2ccc(Cl)cc2)cc1 | > 100 µM | 32 µM | 49 µM | – | –
5 | N#C/C(=C\c1cccc(O)c1)C(=O)NCCCCc1ccccc1 | > 100 µM | > 100 µM | > 100 µM | – | –
6 | O=C(CCCCCc1ccccc1)CCc1ccc(O)cc1 | > 100 µM | 1.8 µM | 23 µM | – | –
7 | O=C(CCc1ccc(O)cc1)NCCCCc1ccccc1 | > 100 µM | 0.43 µM | > 100 µM | – | –
8 | N#C/C(=C\C(=O)NCCc1ccc(O)cc1)c1ccccc1 | > 100 µM | 46 µM | > 100 µM | – | –
9 | N#C/C(=C\c1ccc(F)cc1)C(=O)NCCCCc1ccccc1 | > 100 µM | > 100 µM | > 100 µM | – | –
10 | O=C(/C=C/c1ccc(O)cc1)NCCCCc1ccc(Cl)cc1 | > 100 µM | 0.125 µM | > 100 µM | – | –
11 | O=C(/C=C/c1ccc(O)cc1)NCCCCc1ccccc1 | > 100 µM | 0.077 µM | > 100 µM | > 100 µM | –
12 | O=C(/C=C/c1ccc(Cl)cc1)NCCc1ccccc1O | > 100 µM | 8.3 µM | > 100 µM | – | –
13 | O=C(/C=C/c1ccccc1)NCCCCc1ccccc1 | > 100 µM | 24 µM | > 100 µM | – | –
14 | N#C/C(=C\c1ccc(O)c(O)c1)C(=O)NCCc1ccccc1 | > 100 µM | 1.7 µM | > 100 µM | – | < 0.625 µM
15 | C[C@@H](CN1CCC(Cc2ccccc2)CC1)[C@@H](O)c1ccc(O)cc1 | – | 0.009 µM | 52 µM | – | –
16 | O=C(/C=C/c1ccc(O)cc1)NCCc1ccccc1 | > 100 µM | 1.5 µM | > 100 µM | – | –
17 | O=C(/C=C/c1cc(Cl)ccc1Cl)NCCCCc1ccccc1 | > 100 µM | > 100 µM | > 100 µM | – | –
18 | O=C(/C=C/c1ccccc1)NCCc1ccc(O)cc1 | > 100 µM | 0.68 µM | > 100 µM | – | –

Row | SMILES | IC50 [1] | IC50 [2] | IC50 [3] | IC50 [4] | IC50 [5]
19 | O=C(/C=C/c1ccc(Cl)cc1)NCCc1ccc(Cl)cc1 | > 100 µM | > 100 µM | > 100 µM | – | –
20 | O=C(O)COc1ccc(CCNC(=O)/C=C/c2ccc(Cl)cc2)cc1 | > 100 µM | 52 µM | 45 µM | – | –
21 | N#C/C(=C\c1ccc(O)cc1)C(=O)NCCCCc1ccccc1 | > 100 µM | 0.29 µM | > 100 µM | – | –
22 | N#C/C(=C\c1ccc(O)c(O)c1)C(=O)NCCCCc1ccccc1 | > 100 µM | 0.56 µM | > 100 µM | > 100 µM | –
23 | N#C/C(=C\c1ccc(Cl)cc1)C(=O)NCCCCc1ccccc1 | > 100 µM | > 100 µM | > 100 µM | – | –
24 | N#C/C(=C\c1ccc(O)c(O)c1)C(=O)NCCCc1ccccc1 | 60 µM | 0.66 µM | > 100 µM | – | –
25 | N#C/C(=C\c1ccc(O)c(O)c1)C(=O)NCc1ccccc1 | 100 µM | 45 µM | 19 µM | – | –
26 | N#C/C(=C\c1ccc(O)c(O)c1)C(=O)Nc1ccccc1 | > 100 µM | 90 µM | > 100 µM | – | –
27 | N#C/C(=C\c1ccc(Cl)cc1)C(=O)NCCc1ccc(O)cc1 | > 100 µM | 3.4 µM | 78 µM | – | –
28 | N#C/C(=C\C(=O)NCCc1ccc(O)cc1)c1ccc(Cl)cc1 | > 100 µM | 9 µM | > 100 µM | – | –
29 | O=C(/C=C/c1ccc(O)cc1)NCCc1ccc(Cl)cc1 | > 100 µM | 0.33 µM | > 100 µM | – | –
30 | O=C(/C=C/c1ccc(Cl)cc1)NCCc1ccccc1 | > 100 µM | > 100 µM | > 100 µM | – | –
31 | O=C(/C=C/c1ccc(Cl)cc1)NCCc1ccc(O)cc1 | > 100 µM | 0.17 µM | > 100 µM | – | –
32 | O=C(/C=C/c1ccc(Cl)cc1)NCCc1cccc(O)c1 | > 100 µM | 7.4 µM | > 100 µM | – | –
33 | C[C@H]([C@@H](O)c1ccc(O)cc1)N1CCC(Cc2ccccc2)CC1 [(S,R)-IFENPRODIL] | – | – | – | 0.1 µM | –
34 | O=C(/C=C/c1ccc(O)cc1)NCCc1ccc(O)cc1 [N-P-COUMAROYL TYRAMINE] | > 100 µM | 21 µM | > 100 µM | – | –
35 | C[C@@H]([C@@H](O)c1ccc(O)cc1)N1CCC(O)(c2ccccc2)CC1 [TRAXOPRODIL] | > 100 µM | – | > 100 µM | – | –
